16 compounds from US8569281B2, “Compounds and their administration for treating a neurodegenerative disease as well as a method for identifying a compound capable of inhibiting a kinase, such as LRRK” (Medical Research Council Technology, priority 2010, dated 2013) can be followed below.

For this assay, the target named is LRRK2 (Homo sapiens (Human), UniProt Q5S007). Kind of assay: In Vitro LRRK2 Assay (LabChip 3000, fluorescently-labeled peptide substrate). To be noted: ATP 130 μM, substrate 1 μM, 2 hours, ambient temperature; LRRK2 variant not given; read-out: Ki (μM), affinity values for LRRK2. It counts as biochemical.
Sequence of LRRK2 (Q5S007 whole entry G2019S): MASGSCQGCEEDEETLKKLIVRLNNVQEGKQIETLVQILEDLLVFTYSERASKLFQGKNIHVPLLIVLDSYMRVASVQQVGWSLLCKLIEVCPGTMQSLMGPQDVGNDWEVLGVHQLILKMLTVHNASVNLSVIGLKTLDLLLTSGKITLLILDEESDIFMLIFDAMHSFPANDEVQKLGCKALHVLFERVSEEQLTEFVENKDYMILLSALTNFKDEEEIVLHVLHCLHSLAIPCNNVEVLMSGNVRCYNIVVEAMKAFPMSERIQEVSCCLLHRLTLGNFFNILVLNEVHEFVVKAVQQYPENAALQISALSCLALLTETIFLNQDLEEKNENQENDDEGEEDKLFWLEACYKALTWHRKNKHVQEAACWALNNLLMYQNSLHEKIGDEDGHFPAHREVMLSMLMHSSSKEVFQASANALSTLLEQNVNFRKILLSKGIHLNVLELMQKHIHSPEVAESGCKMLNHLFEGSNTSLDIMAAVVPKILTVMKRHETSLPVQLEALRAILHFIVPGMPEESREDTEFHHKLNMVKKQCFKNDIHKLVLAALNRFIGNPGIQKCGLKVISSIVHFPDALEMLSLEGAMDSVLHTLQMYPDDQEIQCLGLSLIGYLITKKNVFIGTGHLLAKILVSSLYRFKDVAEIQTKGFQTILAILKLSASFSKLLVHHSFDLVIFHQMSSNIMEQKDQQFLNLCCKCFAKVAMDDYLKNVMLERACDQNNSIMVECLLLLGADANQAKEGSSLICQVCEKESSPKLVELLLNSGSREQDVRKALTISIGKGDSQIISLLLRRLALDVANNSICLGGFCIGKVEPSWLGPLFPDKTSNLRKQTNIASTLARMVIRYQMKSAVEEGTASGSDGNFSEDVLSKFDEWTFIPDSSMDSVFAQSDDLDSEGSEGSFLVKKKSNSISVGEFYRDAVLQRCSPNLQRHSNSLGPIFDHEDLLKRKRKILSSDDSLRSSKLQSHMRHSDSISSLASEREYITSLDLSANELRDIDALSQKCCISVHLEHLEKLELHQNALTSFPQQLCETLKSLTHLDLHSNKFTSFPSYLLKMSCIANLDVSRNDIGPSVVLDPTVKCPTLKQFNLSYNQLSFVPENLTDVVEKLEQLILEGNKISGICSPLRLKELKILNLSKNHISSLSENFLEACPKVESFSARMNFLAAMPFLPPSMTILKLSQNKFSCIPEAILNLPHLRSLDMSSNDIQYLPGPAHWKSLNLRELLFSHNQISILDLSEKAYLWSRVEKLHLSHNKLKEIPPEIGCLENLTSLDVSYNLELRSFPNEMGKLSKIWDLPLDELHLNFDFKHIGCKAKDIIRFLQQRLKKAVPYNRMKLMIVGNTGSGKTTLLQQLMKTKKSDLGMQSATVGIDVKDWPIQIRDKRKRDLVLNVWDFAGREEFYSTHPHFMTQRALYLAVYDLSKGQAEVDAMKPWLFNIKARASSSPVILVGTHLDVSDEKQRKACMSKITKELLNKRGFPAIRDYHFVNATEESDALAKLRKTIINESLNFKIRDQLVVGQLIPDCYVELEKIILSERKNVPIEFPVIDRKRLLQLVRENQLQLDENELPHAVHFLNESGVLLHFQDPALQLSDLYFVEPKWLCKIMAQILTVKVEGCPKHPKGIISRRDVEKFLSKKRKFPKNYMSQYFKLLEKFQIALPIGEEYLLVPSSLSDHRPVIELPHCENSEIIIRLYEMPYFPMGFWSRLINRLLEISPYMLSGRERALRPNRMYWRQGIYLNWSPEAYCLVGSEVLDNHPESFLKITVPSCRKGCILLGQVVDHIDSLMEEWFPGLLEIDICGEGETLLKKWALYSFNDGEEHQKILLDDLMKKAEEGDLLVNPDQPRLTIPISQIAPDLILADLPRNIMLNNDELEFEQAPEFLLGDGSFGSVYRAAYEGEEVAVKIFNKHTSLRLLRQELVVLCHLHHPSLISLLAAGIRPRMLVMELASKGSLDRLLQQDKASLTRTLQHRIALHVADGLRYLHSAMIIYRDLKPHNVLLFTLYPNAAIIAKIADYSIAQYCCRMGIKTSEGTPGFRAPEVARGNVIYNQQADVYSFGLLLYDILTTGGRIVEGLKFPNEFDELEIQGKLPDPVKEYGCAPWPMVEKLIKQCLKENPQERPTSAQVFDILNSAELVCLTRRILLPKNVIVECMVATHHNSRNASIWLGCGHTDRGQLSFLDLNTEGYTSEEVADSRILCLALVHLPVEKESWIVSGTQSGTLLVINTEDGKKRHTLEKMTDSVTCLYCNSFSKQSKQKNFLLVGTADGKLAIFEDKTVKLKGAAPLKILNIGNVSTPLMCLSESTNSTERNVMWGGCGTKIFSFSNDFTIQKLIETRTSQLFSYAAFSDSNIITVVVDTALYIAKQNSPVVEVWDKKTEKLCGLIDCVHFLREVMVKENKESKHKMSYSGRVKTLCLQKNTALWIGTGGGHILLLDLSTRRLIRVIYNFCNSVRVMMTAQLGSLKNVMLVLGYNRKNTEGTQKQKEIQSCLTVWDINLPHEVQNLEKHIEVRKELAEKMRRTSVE

A word on the Ki: it is the dissociation constant of the complex between target and ligand, obtained from inhibition or displacement. Take `CN(C)C(=O)c1cccc(-c2cc(-c3n[nH]c4ccnc(OC5CCOCC5)c34)ccn2)c1` [Example 203, N,N-dimethyl-3-(4-(4-(tetrahydro-2H-pyran-4-yloxy)-1H-pyrazolo[4,3-c]pyridin-3-yl)pyridin-2-yl)benzamide]: the Ki was 0.018 µM. Then `c1cc(-c2n[nH]c3ccnc(OC4CCOCC4)c23)cc(-c2cn[nH]c2)n1` [Example 204, 3-(2-(1H-pyrazol-4-yl)pyridin-4-yl)-4-(tetrahydro-2H-pyran-4-yloxy)-1H-pyrazolo[4,3-c]pyridine], with 0.012 µM; and `CC(=O)Nc1ccccc1-c1cc(-c2n[nH]c3ccnc(OC4CCOCC4)c23)ccn1` [Example 206, N-(2-(4-(4-(tetrahydro-2H-pyran-4-yloxy)-1H-pyrazolo[4,3-c]pyridin-3-yl)pyridin-2-yl)phenyl)acetamide], with 0.066 µM; and `CC(=O)Nc1ccc(-c2cc(-c3n[nH]c4ccnc(OC5CCOCC5)c34)ccn2)cn1` [Example 207, N-(4-(4-(tetrahydro-2H-pyran-4-yloxy)-1H-pyrazolo[4,3-c]pyridin-3-yl)-2,3′-bipyridin-6′-yl)acetamide], with 0.021 µM. Then `CC(=O)Nc1cccc(-c2cc(-c3n[nH]c4ccnc(OC5CCOCC5)c34)ccn2)c1` [Example 209, N-(3-(4-(4-(tetrahydro-2H-pyran-4-yloxy)-1H-pyrazolo[4,3-c]pyridin-3-yl)pyridin-2-yl)phenyl)acetamide], with 0.01 µM; and `CC(=O)Nc1ccc(-c2cc(-c3n[nH]c4ccnc(OC5CCOCC5)c34)ccn2)cc1` [Example 210, N-(4-(4-(4-(tetrahydro-2H-pyran-4-yloxy)-1H-pyrazolo[4,3-c]pyridin-3-yl)pyridin-2-yl)phenyl)acetamide], with 0.011 µM. Take `CNC(=O)c1cccc(-c2cc(-c3n[nH]c4ccnc(OC5CCOCC5)c34)ccn2)c1` [Example 211, N-methyl-3-(4-(4-(tetrahydro-2H-pyran-4-yloxy)-1H-pyrazolo[4,3-c]pyridin-3-yl)pyridin-2-yl)benzamide]: the Ki stood at 0.015 µM. Then `CN(C)C(=O)c1ccc(-c2cc(-c3n[nH]c4ccnc(OC5CCOCC5)c34)ccn2)cc1` [Example 212, N,N-dimethyl-4-(4-(4-(tetrahydro-2H-pyran-4-yloxy)-1H-pyrazolo[4,3-c]pyridin-3-yl)pyridin-2-yl)benzamide], with 0.009 µM; and `CCn1cc(-c2cc(-c3n[nH]c4ccnc(OC5CCOCC5)c34)ccn2)cn1` [Example 213, 3-(2-(1-ethyl-1H-pyrazol-4-yl)pyridin-4-yl)-4-(tetrahydro-2H-pyran-4-yloxy)-1H-pyrazolo[4,3-c]pyridine], with 0.012 µM; and `CC(C)Oc1nccc2[nH]nc(-c3cc(C(=O)N4CCCC4)n(C(C)C)c3)c12` [Example 216, [4-(4-Isopropoxy-1H-pyrazolo[4,3-c]pyridin-3-yl)-1-isopropyl-1H-pyrrol-2-yl]-pyrrolidin-1-yl-methanone], with 0.006 µM. As for `CC(C)n1cc(-c2n[nH]c3ccnc(OC4CCOCC4)c23)cc1C(=O)N1CCC1` [Example 218, Azetidin-1-yl-{1-isopropyl-4-[4-(tetrahydro-pyran-4-yloxy)-1H-pyrazolo[4,3-c]pyridin-3-yl]-1H-pyrrol-2-yl}-methanone], the Ki was found to be 0.008 µM. On to `CC(C)Oc1nccc2[nH]nc(-c3ccnc(C(=O)N4C[C@@H]5C[C@H]4CO5)c3)c12` [Example 220, [4-(4-Isopropoxy-1H-pyrazolo[4,3-c]pyridin-3-yl)-pyridin-2-yl]-(1S,4S)-2-oxa-5-aza-bicyclo[2.2.1]hept-5-yl-methanone], for which the Ki amounted to 0.384 µM.

For the compound `CC(C)n1cc(-c2n[nH]c3ccnc(OC4CCOC4)c23)cn1` (stereo not shown) [Example 224, 3-(1-Isopropyl-1H-pyrazol-4-yl)-4-(tetrahydro-furan-3-yloxy)-1H-pyrazolo[4,3-c]pyridine], the Ki amounted to 0.007 µM.

As to `COc1nccc2[nH]nc(-c3cnn(C4CCOC4)c3)c12` (stereo not shown) [Example 234, 4-methoxy-3-(1-(tetrahydrofuran-3-yl)-1H-pyrazol-4-yl)-1H-pyrazolo[4,3-c]pyridine], the Ki came out at 0.023 µM. Then `CNC(=O)c1cccc(-c2[nH]nc3cc(C)nc(OC)c23)c1` [Example 235, 3-(4-methoxy-6-methyl-1H-pyrazolo[4,3-c]pyridin-3-yl)-N-methylbenzamide], with 0.199 µM; and `COc1nccc2[nH]nc(-c3ccnc(N4C[C@@H](C)O[C@@H](C)C4)c3)c12` [Example 238, (2S,6R)-4-(4-(4-methoxy-1H-pyrazolo[4,3-c]pyridin-3-yl)pyridin-2-yl)-2,6-dimethylmorpholine], with 0.025 µM.
